Results on four compounds are retold here after US20240279298A1 (BEIJING TUO JIE BIOPHARMACEUTICAL CO. LTD., priority 2021, published 2024).

pEC50: −log10 of the molar value. ≈ marks a conversion by molar mass, not a printed value. Where a SMILES comes first, the peptide text is derived from it. [ ]: non-standard residue; d: D form. Aib = CC(C)(N)C(=O)O A value given as a limit tells only on which side of the number the result lay.

Broadly, the pEC50 is the EC50 on a negative log10 scale, so that one unit is a factor of ten. As usually defined, the solubility is the dissolved amount per volume that the medium holds.

Data set [1] has as its target T1, human GIPR (Homo sapiens, UniProt P48546).
T1 construct: expressed in transfected cells
T1 sequence (P48546 22-466): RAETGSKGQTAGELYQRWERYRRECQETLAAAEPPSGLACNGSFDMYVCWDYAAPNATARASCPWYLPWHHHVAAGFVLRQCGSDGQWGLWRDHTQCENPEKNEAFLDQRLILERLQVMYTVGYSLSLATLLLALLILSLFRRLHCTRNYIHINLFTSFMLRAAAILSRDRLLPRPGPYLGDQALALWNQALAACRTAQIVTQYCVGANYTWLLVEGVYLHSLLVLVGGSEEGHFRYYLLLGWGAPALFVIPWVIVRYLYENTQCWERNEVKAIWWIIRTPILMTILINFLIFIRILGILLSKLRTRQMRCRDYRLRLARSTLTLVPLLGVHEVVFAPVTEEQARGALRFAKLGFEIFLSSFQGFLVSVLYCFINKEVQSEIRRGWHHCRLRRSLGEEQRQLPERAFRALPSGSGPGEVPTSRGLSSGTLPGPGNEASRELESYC
In words: Agonist activity assay for GIPR (cAMP HTRF). In kind it is cell-based. The conditions noted are these: for pEC50: CHO-K1/GIPR cell line, cAMP. How it is done:
(§1) The activation of GCGR by related compounds will stimulate the formation of cyclic adenosine monophosphate (cAMP) in cells. Thus, the receptor activity can be monitored by cAMP production in proper cells expressing the receptor.
(§2) Agonist activity assay for GCGR: Cryopreserved stable CHO-K1/GCGR/CRE-Luc cells were taken from a liquid nitrogen tank, thawed in a 37° C. water bath, resuspended in DMEM/F12 medium (Sigma Cat #D8437), centrifuged, and seeded into T75 culture flasks. The cells were passaged at least once for subsequent tests. Before testing, the cells were trypsinized, centrifuged, washed once, and resuspended in serum-free DMEM/F12 medium. The cell density was adjusted, and the cells were plated in a 96-well plate at a density of 2,500 cells/5 μL/well. A 1×buffer solution in Cisbio-cAMP-Gs Dynamic kit was prepared, and IBMX was added at a final concentration of 0.5 mM. 5 μL of polypeptide serially diluted by buffer was added into each well, and the plate was shaken gently for mixing and incubated for 30 minutes at 37° C. cAMP-d2 and Anti-cAMP-Eu^3+-Cryptate were 20-fold diluted with cAMP Lysis and detection buffer respectively and mixed well. 5 μL of diluted cAMP-d2 solution and 5 μL of diluted Anti-cAMP-Eu^3+-Cryptate solution were sequentially added into each well. The mixture was mixed well by moderate vibration, and incubated for 1 hour at room temperature away from light.
Agonist activity assay for GIPR: The method differed from the method described above for the agonist activity assay for GCGR in that a stable CHO-K1/GIPR cell line was used, and the cell density was 3,000 cells/5 μL/well.

Data set [2] concerns the target T2, human glucagon receptor (GCGR) (Homo sapiens, UniProt P47871).
T2 construct: expressed in transfected cells
Put plainly: Agonist activity assay for GCGR (cAMP HTRF). It is filed as cell-based. The conditions noted are these: normalized by the activity of the native glucagon. How it is done:
The activation of GCGR by related compounds will stimulate the formation of cyclic adenosine monophosphate (cAMP) in cells. Thus, the receptor activity can be monitored by cAMP production in proper cells expressing the receptor. […] The cells were passaged at least once for subsequent tests. Before testing, the cells were trypsinized, centrifuged, washed once, and resuspended in serum-free DMEM/F12 medium. The cell density was adjusted, and the cells were plated in a 96-well plate at a density of 2,500 cells/5 μL/well. […] The mixture was mixed well by moderate vibration, and incubated for 1 hour at room temperature away from light.

A short description of data set [3]: Maximum solubility in phosphate buffer pH 7.4. In kind it is physicochemical. The conditions noted are these: phosphate buffer pH 7.4, room temperature.
In data set [4] the target is T3, human GLP-1R (Homo sapiens, UniProt P43220).
T3 construct: expressed in transfected cells
T3 sequence (P43220 24-463): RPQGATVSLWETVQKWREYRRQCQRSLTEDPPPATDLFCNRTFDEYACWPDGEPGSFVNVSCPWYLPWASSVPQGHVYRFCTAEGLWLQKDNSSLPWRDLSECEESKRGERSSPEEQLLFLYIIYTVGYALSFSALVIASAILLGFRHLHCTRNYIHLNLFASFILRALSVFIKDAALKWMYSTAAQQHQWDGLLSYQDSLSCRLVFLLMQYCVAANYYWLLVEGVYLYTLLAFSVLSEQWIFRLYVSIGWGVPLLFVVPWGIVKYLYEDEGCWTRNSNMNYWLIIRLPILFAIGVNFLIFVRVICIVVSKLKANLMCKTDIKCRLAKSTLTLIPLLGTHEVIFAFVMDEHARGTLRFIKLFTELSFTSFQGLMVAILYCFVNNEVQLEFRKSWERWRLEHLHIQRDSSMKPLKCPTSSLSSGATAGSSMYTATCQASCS
In words: Agonist activity assay for GLP-1R (cAMP HTRF). It is filed as cell-based. How it is done:
as §1, §2
Agonist activity assay for GLP-1R: The method differed from the method described above for the agonist activity assay for GCGR in that a stable CHO-GLP-1R cell line was used.
A general note: Time-resolved FRET reads energy transfer from a long-lived donor to a nearby acceptor.

Data set [5] can be described thus: Chemical stability in phosphate buffer (UPLC purity). In kind it is physicochemical. The conditions noted are these: phosphate buffer pH 7.4, 1 mg/mL; for Purity Day 0: day 0 (normalization).
Method: The compound purity was calculated by the percentage area of the main peak in the chromatograms relative to the total area of all integrated peaks, normalized by the purity of the sample on day 0 for the purity.
Data set [6] has as its target human glucose-dependent insulinotropic polypeptide receptor (GIPR) (human) (UniProt P48546). In words: cell-based or functional assay.

T2 sequence (P47871 26-477): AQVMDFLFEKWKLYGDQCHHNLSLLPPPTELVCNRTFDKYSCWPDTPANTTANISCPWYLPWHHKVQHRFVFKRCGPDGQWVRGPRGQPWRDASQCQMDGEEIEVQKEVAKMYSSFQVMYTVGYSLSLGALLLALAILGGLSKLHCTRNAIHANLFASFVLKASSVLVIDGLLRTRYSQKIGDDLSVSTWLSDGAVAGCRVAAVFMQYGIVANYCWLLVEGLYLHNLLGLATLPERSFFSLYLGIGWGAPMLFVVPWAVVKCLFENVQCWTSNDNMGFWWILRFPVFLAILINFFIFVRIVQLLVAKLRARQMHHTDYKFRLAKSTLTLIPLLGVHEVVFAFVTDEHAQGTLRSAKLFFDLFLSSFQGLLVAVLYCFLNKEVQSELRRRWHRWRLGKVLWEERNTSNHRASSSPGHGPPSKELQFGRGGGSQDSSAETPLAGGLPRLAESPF

On to `CC[C@H](C)[C@H](NC(=O)[C@H](CC(=O)O)NC(=O)[C@H](CC(C)C)NC(=O)[C@H](Cc1ccc(O)cc1)NC(=O)[C@H](CCCCN)NC(=O)[C@H](CO)NC(=O)[C@H](Cc1ccc(O)cc1)NC(=O)[C@H](CC(=O)O)NC(=O)[C@H](CO)NC(=O)[C@@H](NC(=O)[C@H](Cc1ccccc1)NC(=O)[C@@H](NC(=O)CNC(=O)[C@H](CCC(N)=O)NC(=O)[C@H](CO)NC(=O)[C@@H](N)Cc1c[nH]cn1)[C@@H](C)O)[C@@H](C)O)C(=O)NC(C)(C)C(=O)N[C@@H](CCCNC(=N)N)C(=O)N[C@@H](C)C(=O)N[C@@H](CCC(N)=O)C(=O)N[C@@H](CCC(=O)O)C(=O)N[C@@H](Cc1ccccc1)C(=O)N[C@H](C(=O)N[C@@H](CCC(N)=O)C(=O)N[C@@H](Cc1c[nH]c2ccccc12)C(=O)N[C@@H](CC(C)C)C(=O)N[C@@H](CCC(=O)O)C(=O)N[C@@H](CO)C(=O)N[C@H](C(=O)O)[C@@H](C)O)C(C)C` [Compound 42] (H-HSQGTFTSDYSKYLDI[Aib]RAQEFVQWLEST-OH), for which, in data set [1], the negative logarithm of the EC50 (pEC50) was less than 7.00 and the “GIPR % Activity relative to native GIP” value is listed as less than 0.0700%. Further, in data set [2], the Relative activity was 207%. Moreover, the solubility at 5 min in data set [3] is greater than 2490 µg/mL. Also, the “GLP-1R % Activity relative to native GLP-1” value in data set [4] worked out at 0.291%.
In the case of `CC(C)C[C@H](NC(=O)[C@H](Cc1c[nH]c2ccccc12)NC(=O)[C@H](CCC(N)=O)NC(=O)[C@@H](NC(=O)[C@H](Cc1ccccc1)NC(=O)[C@H](CCC(=O)O)NC(=O)[C@H](CCC(N)=O)NC(=O)[C@H](C)NC(=O)[C@H](CCCNC(=N)N)NC(=O)C(C)(C)NC(=O)[C@@H](NC(=O)[C@H](CC(=O)O)NC(=O)[C@H](CC(C)C)NC(=O)[C@H](Cc1ccc(O)cc1)NC(=O)[C@H](CCCCN)NC(=O)[C@H](CO)NC(=O)[C@H](Cc1ccc(O)cc1)NC(=O)[C@H](CC(=O)O)NC(=O)[C@H](CO)NC(=O)[C@@H](NC(=O)[C@H](Cc1ccccc1)NC(=O)[C@@H](NC(=O)CNC(=O)[C@H](CCC(N)=O)NC(=O)[C@H](CO)NC(=O)[C@@H](N)Cc1c[nH]cn1)[C@@H](C)O)[C@@H](C)O)C(C)C)C(C)C)C(=O)N[C@@H](CCC(=O)O)C(=O)N[C@@H](CO)C(=O)N[C@H](C(=O)O)[C@@H](C)O` [Compound 41] (H-HSQGTFTSDYSKYLDV[Aib]RAQEFVQWLEST-OH), in data set [1], the negative-log EC50 (pEC50) was less than 7.00 and the “GIPR % Activity relative to native GIP” value was less than 0.0700%. The Relative activity in data set [2] came to 333%. The solubility at 5 min in data set [3] stood at 2560 µg/mL (≈ 751 µM). For the same compound, in data set [5] (4° C.), the “Purity Day 7” value was 98.77%, the “Purity Day 14” value was 93.35%, the “Purity Day 21” value is 89.45% and the “Purity Day 28” value was found to be 89.12%. Besides, in data set [5] (25° C.), the “Purity Day 7” value stood at 82.25%, the “Purity Day 14” value is 68.13%, the “Purity Day 21” value came out at 49.04% and the “Purity Day 28” value is 33.47%. The “Purity Day 0” value in data set [5] stood at 100.00%. Also, in data set [4], the “GLP-1R % Activity relative to native GLP-1” value came to 0.231%.
On to `CC(C)C[C@H](NC(=O)[C@H](Cc1c[nH]c2ccccc12)NC(=O)[C@H](CCC(N)=O)NC(=O)[C@@H](NC(=O)[C@H](Cc1ccccc1)NC(=O)[C@H](CCC(=O)O)NC(=O)[C@H](CCC(N)=O)NC(=O)[C@H](C)NC(=O)[C@H](CCCNC(=N)N)NC(=O)C(C)(C)NC(=O)[C@@H](NC(=O)[C@H](CC(=O)O)NC(=O)[C@H](CC(C)C)NC(=O)[C@H](Cc1ccc(O)cc1)NC(=O)[C@H](CCCCN)NC(=O)[C@H](CO)NC(=O)[C@H](Cc1ccc(O)cc1)NC(=O)[C@H](CC(=O)O)NC(=O)[C@H](CO)NC(=O)[C@@H](NC(=O)[C@H](Cc1ccccc1)NC(=O)[C@@H](NC(=O)CNC(=O)[C@H](CCC(N)=O)NC(=O)[C@H](CO)NC(=O)[C@@H](N)Cc1c[nH]cn1)[C@@H](C)O)[C@@H](C)O)[C@@H](C)O)C(C)C)C(=O)N[C@@H](CCC(=O)O)C(=O)N[C@@H](CO)C(=O)N[C@H](C(=O)O)[C@@H](C)O` [Compound 39] (H-HSQGTFTSDYSKYLDT[Aib]RAQEFVQWLEST-OH), for which, in data set [1], the pEC50 is less than 7.00 and the “GIPR % Activity relative to native GIP” value is on record as less than 0.0700%. In addition, the Relative activity in data set [2] worked out at 268%. The compound further displayed a solubility at 5 min in data set [3] greater than 4790 µg/mL. For the same compound, in data set [5] (4° C.), the “Purity Day 7” value amounted to 97.24%, the “Purity Day 14” value was determined as 97.45%, the “Purity Day 21” value stood at 95.71% and the “Purity Day 28” value was 94.88%. For the same compound, in data set [5] (25° C.), the “Purity Day 7” value came out at 94.64%, the “Purity Day 14” value is on record as 93.86%, the “Purity Day 21” value is on record as 91.35% and the “Purity Day 28” value was 91.85%. Besides, in data set [5], the “Purity Day 0” value was determined as 100.00%. Moreover, the “GLP-1R % Activity relative to native GLP-1” value in data set [4] worked out at 0.212%.
In data set [6], “human GIP (1-42) (from UniProt P09681 52-93) (ligand)” displayed a GIPR % Activity relative to native GIP, cAMP HTRF of 100% and a GIPR EC50 (nM), cAMP HTRF in CHO-K1/GIPR cells of 0.0652 nM.
